Consider 22 compounds from US20220315621A1, “COMPOSITIONS AND METHODS FOR TREATING CNS DISORDERS” (priority 2017, published 2022).

Like-named read-outs stand apart in the source and are kept apart here.

This test has as its target TBPS binding. Nature of the test: Steroid inhibition of TBPS binding.
The mark [1] stands for this setting: Table II-2, read-out: TBPS IC50 (μm).
Setting [2] is: Table III-1, read-out: TBPS IC50.
Setting [3] is: Table IV-2, read-out: TBPS IC50.

For `Cc1nnn(CC(=O)[C@H]2CC[C@H]3[C@@H]4CC=C5CC[C@](C)(O)CC[C@]5(C)[C@H]4CC[C@]23C)n1` [II-F6, 1-((1S,3aS,3bS,8S,10aR,10bS,12aS)-8-hydroxy-8,10a,12a-trimethyl-1,2,3,3a,3b,4,6,7,8,9,10,10a,10b,11,12,12a-hexadecahydrocyclohepta[a]cyclopenta[f]naphthalen-1-yl)-2-(5-methyl-2H-tetrazol-2-yl)ethan-1-one], the IC50 – broadly, the concentration that inhibits the measured activity by half – under setting [1] fell in the range of 10 to 100 nM.

On to `Cc1nnnn1CC(=O)[C@H]1CC[C@H]2[C@@H]3CC=C4CC[C@](C)(O)CC[C@]4(C)[C@H]3CC[C@]12C` [II-F7, 1-((1S,3aS,3bS,8S,10aR,10bS,12aS)-8-hydroxy-8,10a,12a-trimethyl-1,2,3,3a,3b,4,6,7,8,9,10,10a,10b,11,12,12a-hexadecahydrocyclohepta[a]cyclopenta[f]naphthalen-1-yl)-2-(5-methyl-1H-tetrazol-1-yl)ethan-1-one], for which the IC50 under setting [1] is 10 to 100 nM.

Regarding `CC(=O)[C@H]1CC[C@H]2[C@@H]3CC[C@@H]4CC[C@](C)(O)CC[C@@H]4[C@H]3CC[C@]12C` [II-F8, 1-((1S,3aS,3bR,5aR,8S,10aS,10bR,12aS)-8-hydroxy-8,12a-dimethyloctadecahydrocyclohepta[a]cyclopenta[f]naphthalen-1-yl)ethan-1-one], under setting [1], the IC50 was in the range of 100 to 1000 nM.

As to `C[C@]1(O)CC[C@H]2CC[C@@H]3[C@H](CC[C@]4(C)[C@@H](C(=O)Cn5cc(C#N)cn5)CC[C@@H]34)[C@H]2CC1` [II-F11, 1-(2-((1S,3aS,3bR,5aR,8S,10aS,10bR,12aS)-8-hydroxy-8,12a-dimethyloctadecahydrocyclohepta[a]cyclopenta[f]naphthalen-1-yl)-2-oxoethyl)-1H-pyrazole-4-carbonitrile], under setting [1], the IC50 was 100 to 1000 nM.

On to `Cc1nnn(CC(=O)[C@H]2CC[C@H]3[C@@H]4CC[C@@H]5CC[C@](C)(O)CC[C@@H]5[C@H]4CC[C@]23C)n1` [II-F12, 1-((1S,3aS,3bR,5aR,8S,10aS,10bR,12aS)-8-hydroxy-8,12a-dimethyloctadecahydrocyclohepta[a]cyclopenta[f]naphthalen-1-yl)-2-(5-methyl-2H-tetrazol-2-yl)ethan-1-one], for which the concentration for half-maximal inhibition (IC50) under setting [1] was in the range of 100 to 1000 nM.

On to `Cc1nnnn1CC(=O)[C@H]1CC[C@H]2[C@@H]3CC[C@@H]4CC[C@](C)(O)CC[C@@H]4[C@H]3CC[C@]12C` [II-F13, 1-((1S,3aS,3bR,5aR,8S,10aS,10bR,12aS)-8-hydroxy-8,12a-dimethyloctadecahydrocyclohepta[a]cyclopenta[f]naphthalen-1-yl)-2-(5-methyl-1H-tetrazol-1-yl)ethan-1-one], for which the IC50 under setting [1] lay in the range of 1000 to 10000 nM.

With `CC(=O)[C@H]1CC[C@H]2[C@@H]3CC[C@@H]4C[C@](C)(O)C[C@@H]4[C@H]3CC[C@]12C` [II-G8, 1-((1S,3aS,3bR,5aR,7S,8aS,8bR,10aS)-7-hydroxy-7,10a-dimethylhexadecahydrodicyclopenta[a,f]naphthalen-1-yl)ethan-1-one], the IC50 under setting [1] was in the range of 100 to 1000 nM.

Turning to `C[C@]1(O)C[C@H]2CC[C@@H]3[C@H](CC[C@]4(C)[C@@H](C(=O)Cn5cc(C#N)cn5)CC[C@@H]34)[C@H]2C1` [II-G10], the IC50 under setting [1] is 100 to 1000 nM.

Regarding `C[C@]1(O)C[C@H]2CC[C@@H]3[C@H](CC[C@]4(C)[C@@H](C(=O)Cn5nccn5)CC[C@@H]34)[C@H]2C1` [II-G11, 1-((1S,3aS,3bR,5aR,7S,8aS,8bR,10aS)-7-hydroxy-7,10a-dimethylhexadecahydrodicyclopenta[a,f]naphthalen-1-yl)-2-(2H-1,2,3-triazol-2-yl)ethan-1-one], the half-inhibitory concentration (IC50) under setting [1] was 100 to 1000 nM.

On to `C[C@]1(O)C[C@H]2CC[C@@H]3[C@H](CC[C@]4(C)[C@@H](C(=O)Cn5ccnn5)CC[C@@H]34)[C@H]2C1` [II-G12, 1-((1S,3aS,3bR,5aR,7S,8aS,8bR,10aS)-7-hydroxy-7,10a-dimethylhexadecahydrodicyclopenta[a,f]naphthalen-1-yl)-2-(1H-1,2,3-triazol-1-yl)ethan-1-one], for which, under setting [1], the IC50 fell in the range of 100 to 1000 nM.

With `CC(=O)[C@H]1CC[C@H]2[C@@H]3CC[C@@H]4[C@H](CC[C@@]4(C)O)[C@H]3CC[C@]12C` [II-H11, 1-((1S,3aS,3bR,5aR,6R,8aR,8bS,10aS)-6-hydroxy-6,10a-dimethylhexadecahydrodicyclopenta[a,f]naphthalen-1-yl)ethan-1-one], the IC50 under setting [1] was in the range of 1000 to 10000 nM.

For `C[C@]12CC[C@@H]3[C@H]4CC[C@@](C)(O)[C@@H]4CC[C@H]3[C@@H]1CC[C@@H]2C(=O)Cn1cc(C#N)cn1` [II-H13, 1-(2-((1S,3aS,3bR,5aR,6R,8aR,8bS,10aS)-6-hydroxy-6,10a-dimethylhexadecahydrodicyclopenta[a,f]naphthalen-1-yl)-2-oxoethyl)-1H-pyrazole-4-carbonitrile], the IC50 under setting [1] was in the range of 1000 to 10000 nM.

Regarding `C[C@]12CC[C@@H]3[C@H]4CC[C@](C)(O)[C@@H]4CC[C@H]3[C@@H]1CC[C@@H]2C(=O)Cn1cc(C#N)cn1` [II-H19, 1-(2-((1S,3aS,3bR,5aR,6S,8aR,8bS,10aS)-6-hydroxy-6,10a-dimethylhexadecahydrodicyclopenta[a,f]naphthalen-1-yl)-2-oxoethyl)-1H-pyrazole-4-carbonitrile], the concentration for half-maximal inhibition (IC50) under setting [1] fell in the range of 1000 to 10000 nM.

Turning to `COC[C@]1(O)C[C@H]2CC[C@@H]3[C@H](CC[C@]4(C)[C@@H](C(C)=O)CC[C@@H]34)[C@H]2C1` [II-J9, 1-((1S,3aS,3bR,5aR,7S,8aS,8bR,10aS)-7-hydroxy-7-(methoxymethyl)-10a-methylhexadecahydrodicyclopenta[a,f]naphthalen-l-yl)ethan-1-one], the IC50 under setting [1] was 100 to 1000 nM.

As to `COC[C@]1(O)C[C@H]2CC[C@@H]3[C@H](CC[C@]4(C)[C@@H](C(=O)Cn5cc(C#N)cn5)CC[C@@H]34)[C@H]2C1` [II-J11, 1-(2-((1S,3aS,3bR,5aR,7S,8aS,8bR,10aS)-7-hydroxy-7-(methoxymethyl)-10a-methylhexadecahydrodicyclopenta[a,f]naphthalen-1-yl)-2-oxoethyl)-1H-pyrazole-4-carbonitrile], under setting [1], the IC50 was in the range of 100 to 1000 nM.

Turning to `CC(=O)[C@H]1CC[C@H]2[C@@H]3CCC[C@H]4C[C@](C)(O)CC[C@@H]4[C@H]3CC[C@]12C` [III-A13, 1-((1S,3aS,3bR,6aS,8R,10aS,10bR,12aS)-8-hydroxy-8,12a-dimethyloctadecahydrobenzo[3,4]cyclohepta[1,2-e]inden-1-yl)ethan-1-one], the IC50 under setting [2] was 1000 to 10000 nM.

Turning to `C[C@@]1(O)CC[C@H]2[C@@H](CCC[C@@H]3[C@@H]2CC[C@]2(C)[C@@H](C(=O)Cn4cc(C#N)cn4)CC[C@@H]32)C1` [III-A15, 1-(2-((1S,3aS,3bR,6aS,8R,10aS,10bR,12aS)-8-hydroxy-8,12a-dimethyloctadecahydrobenzo[3,4]cyclohepta[1,2-e]inden-1-yl)-2-oxoethyl)-1H-pyrazole-4-carbonitrile], the IC50 under setting [2] is 100 to 1000 nM.

Turning to `C[C@@]1(O)CC[C@H]2[C@H](C[C@@H]3[C@@H]2CC[C@]2(C)[C@@H](C(=O)Cn4cc(C#N)cn4)CC[C@@H]32)C1` [IV-A16, 1-(2-((3S,3aS,5aR,5bS,8R,9aR,10aR,10bS)-8-hydroxy-3a,8-dimethylhexadecahydrocyclopenta[a]fluoren-3-yl)-2-oxoethyl)-1H-pyrazole-4-carbonitrile], the IC50 under setting [3] is 10 to 100 nM.

Turning to `CC(=O)[C@H]1CC[C@H]2[C@@H]3C[C@H]4C[C@](C)(O)CC[C@@H]4[C@H]3CC[C@]12C` [IV-B7, 1-((3S,3aS,5aR,5bS,8R,9aS,10aR,10bS)-8-hydroxy-3a,8-dimethylhexadecahydrocyclopenta[a]fluoren-3-yl)ethan-1-one], under setting [3], the IC50 was in the range of 10 to 100 nM.

With `C[C@@]1(O)CC[C@H]2[C@@H](C[C@@H]3[C@@H]2CC[C@]2(C)[C@@H](C(=O)Cn4cc(C#N)cn4)CC[C@@H]32)C1` [IV-B9, 1-(2-((3S,3aS,5aR,5bS,8R,9aS,10aR,10bS)-8-hydroxy-3a,8-dimethylhexadecahydrocyclopenta[a]fluoren-3-yl)-2-oxoethyl)-1H-pyrazole-4-carbonitrile], the 50% inhibitory concentration (IC50) under setting [3] fell in the range of 10 to 100 nM.

For the compound `CC(=O)[C@H]1CC[C@H]2[C@@H]3CC[C@H]4C[C@](C)(O)CC[C@]4(C)[C@H]3CCC[C@]12C` [V-A8, 1-((3aS,4S,6aS,6bR,8aS,10R,12aS,12bS)-10-hydroxy-3a,10,12a-trimethyloctadecahydronaphtho[2,1-e]azulen-4-yl)ethan-1-one], the concentration for half-maximal inhibition (IC50) (Table V-2, read-out: TBPS IC50) lay in the range of 100 to 1000 nM.

Regarding `C[C@@]1(O)CC[C@@]2(C)[C@@H](CC[C@@H]3[C@@H]2CCC[C@]2(C)[C@@H](C(=O)Cn4cc(C#N)cn4)CC[C@@H]32)C1` [V-A10, 1-(2-((3aS,4S,6aS,6bR,8aS,10R,12aS,12bS)-10-hydroxy-3a,10,12a-trimethyloctadecahydronaphtho[2,1-e]azulen-4-yl)-2-oxoethyl)-1H-pyrazole-4-carbonitrile], where the note is “Table V-2, read-out: TBPS IC50”, the IC50 lay within 100 to 1000 nM.
